Counter-ions that a name gives are not always drawn.
Biological target: T1, recombinant human NK1 receptors (Homo sapiens, UniProt P25103)
T1 construct: expressed in transfected cells; host or cells: Chinese Hamster Ovary (CHO) cells, membrane preparation
T1 sequence (P25103 whole entry): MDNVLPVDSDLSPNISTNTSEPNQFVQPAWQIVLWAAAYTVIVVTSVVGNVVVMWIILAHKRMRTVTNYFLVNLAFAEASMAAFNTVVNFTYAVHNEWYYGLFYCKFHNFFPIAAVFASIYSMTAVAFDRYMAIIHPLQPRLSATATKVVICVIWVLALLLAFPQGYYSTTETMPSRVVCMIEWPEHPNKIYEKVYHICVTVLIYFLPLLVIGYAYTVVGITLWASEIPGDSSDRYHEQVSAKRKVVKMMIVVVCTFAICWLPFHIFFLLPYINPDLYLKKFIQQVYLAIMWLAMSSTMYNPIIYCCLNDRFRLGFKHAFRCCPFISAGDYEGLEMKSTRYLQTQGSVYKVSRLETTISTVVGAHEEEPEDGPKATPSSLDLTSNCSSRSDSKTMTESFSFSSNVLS
Experiment: NK1-receptor binding affinity, displacement of [3H]-substance P
Settings: displacement of [3H]-substance P from recombinant human NK1 receptors expressed in CHO cell membranes; average of at least two determinations
Procedure: NK1-receptor binding affinity has been determined in vitro by the compounds' ability to displace [3H]-substance P (SP) from recombinant human NK1 receptors expressed in Chinese Hamster Ovary (CHO) cell membranes.
CHO cell membranes were prepared by using a modification of the method described by Dam T and Quirion R (Peptides, 7:855-864, 1986). Thus ligand binding was performed in 0.4 ml of 50 mM HEPES, pH 7.4, containing 3 mM MnCl2, 0.02% BSA, 0.5 nM [^3H]-Substance P (30÷56 Ci/mmol, Amersham), a final membrane concentration of 25 μg of protein/ml, and the test compounds. The incubation proceeded at room temperature for 40 min. Non-specific binding was determined using excess of Substance P (1 μM) and represents about 6% of the total binding.
The affinity of the compound of the invention for NK1 receptor was determined using the NK1-receptor binding affinity method measuring in vitro by the compounds' ability to displace [3H]-substance P (SP) from recombinant human NK1 receptors expressed in Chinese Hamster Ovary (CHO) cell membranes. The affinity values are expressed as negative logarithm of the inhibition constant (Ki) of displacer ligands (pKi).
The pKi values obtained as the average of at least two determinations with representative compounds of the invention are given in the following table: […]
For Cc1cc(C)cc(CN(C)C(=O)N2CCNC[C@@H]2c2ccc(F)cc2C)c1 [Example 2, 2-(S)-(4Fluoro-2-methyl-phenyl)piperazine-1-carboxylic Acid, (3,5-dimethyl-benzyl)-methylamide Hydrochloride], the Ki was 0.724 nM.
In the case of Cc1cc(F)ccc1[C@H]1CNCCN1C(=O)N(C)Cc1cc(Cl)cc(Cl)c1.Cl [Example 3, 2-(S)-(4-Fluoro-2-methyl-phenyl)-piperazine-1-carboxylic Acid, (3,5-dichloro-benzyl)-methylamide Hydrochloride], the Ki is reported as 0.372 nM.
For Cc1cc(F)ccc1[C@H]1CNCCN1C(=O)N(C)Cc1cc(F)cc(F)c1 [Example 6, 2-(S)-(4-Fluoro-2-methyl-phenyl)-piperazine-1-carboxylic Acid, (3,5-difluoro-benzyl)-methylamide Hydrochloride], the Ki was 1.66 nM.
For Cc1cc(F)ccc1[C@H]1CNCCN1C(=O)N(C)Cc1cc(Cl)ccc1Cl [Example 7, 2-(S)-(4-Fluoro-2-methyl-phenyl)-piperazine-1-carboxylic Acid, (2,5-dichloro-benzyl)-methylamide Hydrochloride], the Ki was 0.851 nM.
Cc1cc(F)ccc1[C@H]1CNCCN1C(=O)N(C)Cc1ccc(Cl)c(Cl)c1 [Example 8, 2-(S)-(4-fluoro-2-methyl-phenyl)-piperazine-1-carboxylic Acid, (3,4-dichlorobenzyl)-methylamide Trifluoroacetate] showed a Ki of 0.646 nM.

Tested on: not given
Experiment: not given
Settings: not given
Cc1cc(F)ccc1[C@H]1CNCCN1C(=O)N(C)Cc1cc(Cl)cc(Cl)c1.Cl [Example 3, 2-(S)-(4-Fluoro-2-methyl-phenyl)-piperazine-1-carboxylic Acid, (3,5-dichloro-benzyl)-methylamide Hydrochloride] gave a melting point of 110 to 112 °C.
